Results as given in patent publication US4401660A, “Ester derivatives of 5-O-mycaminosyl tylonolide and method of using same” (Eli Lilly and Company, priority 1981, dated 1983).
Where two headings read alike, the source gives them in different places.

Tests used:
[1] = system: Pasteurella multocida 60A; assay: MIC, broth-dilution microtiter test (Table III); format: cell-based; parameters: unit not given here; conditions: avian isolate
Protocol: (§1) The MIC's in Table II were determined by standard agar-dilution assays. The MIC's in Table III were obtained using a conventional broth-dilution microtiter test.

Mycoplasma hyorhinis = assay: MIC, broth-dilution microtiter test (Table III); format: cell-based; parameters: unit not given here
Protocol: as §1

[2] = system: Pasteurella haemolytica 41D; assay: MIC, broth-dilution microtiter test (Table III); format: cell-based; parameters: unit not given here
Protocol: as §1

[3] = system: Pasteurella multocida 68C; assay: MIC, broth-dilution microtiter test (Table III); format: cell-based; parameters: unit not given here
Protocol: as §1

[4] = system: Pasteurella multocida 40G; assay: MIC, broth-dilution microtiter test (Table III); format: cell-based; parameters: unit not given here
Protocol: as §1

Staphylococcus aureus = assay: MIC, broth-dilution microtiter test (Table III); format: cell-based; parameters: unit not given here
Protocol: as §1

Mycoplasma synoviae = assay: MIC, broth-dilution microtiter test (Table III); format: cell-based; parameters: unit not given here
Protocol: as §1

Mycoplasma gallisepticum = assay: MIC, broth-dilution microtiter test (Table III); format: cell-based; parameters: unit not given here
Protocol: as §1

[5] = system: Pasteurella haemolytica 22C; assay: MIC, broth-dilution microtiter test (Table III); format: cell-based; parameters: unit not given here
Protocol: as §1

[6] = system: Pasteurella haemolytica 23C; assay: MIC, broth-dilution microtiter test (Table III); format: cell-based; parameters: unit not given here
Protocol: as §1

[7] = system: Pasteurella multocida 22A; assay: MIC, broth-dilution microtiter test (Table III); format: cell-based; parameters: unit not given here
Protocol: as §1

Streptococcus sp. 80 = assay: MIC, broth-dilution microtiter test (Table III); format: cell-based; parameters: unit not given here
Protocol: as §1

[8] = system: Pasteurella multocida 17E; assay: MIC, broth-dilution microtiter test (Table III); format: cell-based; parameters: unit not given here; conditions: bovine isolate
Protocol: as §1

Pasteurella multocida = assay: Treatment of Pasteurella infections in chicks (Table V); format: in vivo, one-day-old chicks; conditions: Pasteurella multocida, sc, 4 h; 30 mg/kg by subcutaneous injection one and four hours post challenge; read-out: Deaths in Treated Chicks/Number Treated (converted)
Outline: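 One-day-old chicks challenged subcutaneously with avian P. multocida (0.1 ml of 10^-3 dilution of 20-hour tryptose broth culture). Esters given at 30 mg/kg subcutaneously at 1 and 4 hours post challenge. Untreated infected controls, ten per group.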

[9] = system: Staphylococcus epidermidis EPI2; assay: MIC, standard agar-dilution assay (Table II); format: cell-based; parameters: unit not given here
Protocol: as §1

[10] = system: Staphylococcus aureus V41; assay: MIC, standard agar-dilution assay (Table II); format: cell-based; parameters: unit not given here; conditions: Staphylococcus aureus V41, penicillin-resistant strain
Protocol: as §1

[11] = system: Staphylococcus aureus X400; assay: MIC, standard agar-dilution assay (Table II); format: cell-based; parameters: unit not given here; conditions: Staphylococcus aureus X400, methicillin-resistant strain
Protocol: as §1

[12] = system: Haemophilus influenzae R252; assay: MIC, standard agar-dilution assay (Table II); format: cell-based; parameters: unit not given here; conditions: Haemophilus influenzae R252, ampicillin-resistant strain
Protocol: as §1

[13] = system: Streptococcus Group D 9960; assay: MIC, standard agar-dilution assay (Table II); format: cell-based; parameters: unit not given here
Protocol: as §1

[14] = system: Staphylococcus aureus S13E; assay: MIC, standard agar-dilution assay (Table II); format: cell-based; parameters: unit not given here
Protocol: as §1

[15] = system: Streptococcus pneumoniae Park I; assay: MIC, standard agar-dilution assay (Table II); format: cell-based; parameters: unit not given here
Protocol: as §1

[16] = system: Streptococcus Group D X66; assay: MIC, standard agar-dilution assay (Table II); format: cell-based; parameters: unit not given here
Protocol: as §1

[17] = system: Streptococcus pyogenes C203; assay: MIC, standard agar-dilution assay (Table II); format: cell-based; parameters: unit not given here
Protocol: as §1

[18] = system: Haemophilus influenzae Holt; assay: MIC, standard agar-dilution assay (Table II); format: cell-based; parameters: unit not given here; conditions: ampicillin-sensitive strain
Protocol: as §1

[19] = system: Staphylococcus aureus X1.1; assay: MIC, standard agar-dilution assay (Table II); format: cell-based; parameters: unit not given here
Protocol: as §1

[20] = system: Staphylococcus epidermidis EPI1; assay: MIC, standard agar-dilution assay (Table II); format: cell-based; parameters: unit not given here
Protocol: as §1

[21] = system: Streptococcus pyogenes C203; assay: ED50 in mice with experimental infections (Table IV); format: in vivo; conditions: Streptococcus pyogenes, doses given 1 and 4 hours postinfection
Protocol: The OMT ester derivatives of this invention have shown in vivo antimicrobial activity against experimental bacterial infections caused by gram-positive bacteria. When two doses of test compound were administered to mice with experimental infections, the activity observed was measured as an ED50 value [effective dose in mg/kg to protect 50% of the test animals: see Warren Wick, et al., J. Bacteriol. 81, 233-235 (1961)].
^a mg/kg × 2; doses given 1 and 4 hours postinfection

SMILES | minimal inhibitory concentration (MIC) [1] | minimal inhibitory concentration (MIC) (Mycoplasma hyorhinis) | minimal inhibitory concentration (MIC) (Staphylococcus aureus) | minimal inhibitory concentration (MIC) (Mycoplasma synoviae) | minimal inhibitory concentration (MIC) (Mycoplasma gallisepticum) | minimal inhibitory concentration (MIC) (Streptococcus sp. 80) | minimal inhibitory concentration (MIC) [8] | mortality at 30 mg/kg (Pasteurella multocida) [%] | minimal inhibitory concentration (MIC) [9] | minimal inhibitory concentration (MIC) [10] | minimal inhibitory concentration (MIC) [11] | minimal inhibitory concentration (MIC) [12] | minimal inhibitory concentration (MIC) [13] | minimal inhibitory concentration (MIC) [14] | minimal inhibitory concentration (MIC) [15] | minimal inhibitory concentration (MIC) [16] | minimal inhibitory concentration (MIC) [17] | minimal inhibitory concentration (MIC) [18] | minimal inhibitory concentration (MIC) [19] | minimal inhibitory concentration (MIC) [20] | other results
CCC(=O)OCC1C=C(C)C=CC(=O)C(C)CC(CC=O)C(OC2OC(C)C(OC(=O)CC)C(N(C)C)C2OC(=O)CC)C(C)C(O)CC(=O)OC1CC (centres unmarked) [Compound 8, 2',4',23-Tri-O-propionyl-OMT] | 1.56 | 0.78 | 0.39 | 0.048 | 0.048 | 0.195 | 1.56 | 60 | 0.25 | 0.5 | 0.5 | 4 | 0.5 | 0.5 | 0.25 | 0.5 | 0.25 | 2 | 0.25 | 0.25 | minimal inhibitory concentration (MIC) [2]: 3.12; minimal inhibitory concentration (MIC) [3]: 1.56; minimal inhibitory concentration (MIC) [4]: 1.56; minimal inhibitory concentration (MIC) [5]: 3.12; minimal inhibitory concentration (MIC) [6]: 6.25; minimal inhibitory concentration (MIC) [7]: 3.12
CCC1OC(=O)CC(O)C(C)C(OC2OC(C)C(O)C(N(C)C)C2O)C(CC=O)CC(C)C(=O)C=CC(C)=CC1COC(=O)CC(C)C (centres unmarked) [Compound 22] | 3.12 | 0.78 | 0.78 | < 0.05 | < 0.05 | 0.097 | 1.56 | 10 | 0.25 | 0.25 | 0.5 | 4 | 0.5 | 0.25 | 0.125 | 0.5 | 0.25 | 2 | 0.25 | 0.25 | ED50 ([21]; C203, oral, read-out: ED50, Oral): > 150 mg/kg; ED50 ([21]; C203, sc, subcutaneous, read-out: ED50, Subcutaneous): 7.5 mg/kg
CCC1OC(=O)CC(O)C(C)C(OC2OC(C)C(O)C(N(C)C)C2O)C(CC=O)CC(C)C(=O)C=CC(C)=CC1COC(=O)Cc1cc(OC)ccc1OC (centres unmarked) [Compound 63] | 3.12 | 1.56 | 1.56 | < 0.05 | 0.39 | 0.195 | 6.25 | 75 | 0.25 | 0.25 | 0.25 | 2 | 0.25 | 0.25 | 0.03 | 0.125 | 0.06 | 1 | 0.125 | 0.25 | minimal inhibitory concentration (MIC) [2]: 12.5; minimal inhibitory concentration (MIC) [3]: 6.25; minimal inhibitory concentration (MIC) [4]: 3.12; minimal inhibitory concentration (MIC) [5]: 6.25; minimal inhibitory concentration (MIC) [6]: 6.25; minimal inhibitory concentration (MIC) [7]: 6.25
CCC1OC(=O)CC(O)C(C)C(OC2OC(C)C(O)C(N(C)C)C2OC(C)=O)C(CC=O)CC(C)C(=O)C=CC(C)=CC1COC(=O)CCCC(=O)OC (centres unmarked) [Compound 71] | 6.25 | 12.5 | 0.78 | 0.78 | 0.195 | 1.56 | 6.25 | 60 | 0.25 | 0.25 | 0.25 | 2 | 0.5 | 0.25 | 0.03 | 0.25 | 0.25 | 2 | 0.25 | 0.25 | minimal inhibitory concentration (MIC) [2]: 12.5; minimal inhibitory concentration (MIC) [3]: 6.25; minimal inhibitory concentration (MIC) [4]: 3.12; minimal inhibitory concentration (MIC) [5]: 50; minimal inhibitory concentration (MIC) [6]: 12.5; minimal inhibitory concentration (MIC) [7]: 3.12
CCC1OC(=O)CC(O)C(C)C(OC2OC(C)C(O)C(N(C)C)C2OC(C)=O)C(CC=O)CC(C)C(=O)C=CC(C)=CC1COC(=O)C(C)(C)C (centres unmarked) [Compound 67] | 3.12 | 0.39 | 1.56 | < 0.048 | < 0.048 | < 0.78 | 3.12 | 80 | 0.25 | 0.25 | 0.25 | 1 | 0.25 | 0.25 | 0.06 | 0.25 | 0.125 | 1 | 0.25 | 0.25 | minimal inhibitory concentration (MIC) [2]: 6.25; minimal inhibitory concentration (MIC) [3]: 1.56; minimal inhibitory concentration (MIC) [4]: 3.12; minimal inhibitory concentration (MIC) [5]: 12.5; minimal inhibitory concentration (MIC) [6]: 6.25; minimal inhibitory concentration (MIC) [7]: 3.12
CCC1OC(=O)CC(O)C(C)C(OC2OC(C)C(O)C(N(C)C)C2O)C(CC=O)CC(C)C(=O)C=CC(C)=CC1COC(=O)Cc1ccc([N+](=O)[O-])cc1 (centres unmarked) [Compound 65] | 3.12 | 0.78 | 0.39 | < 0.05 | 0.195 | 0.195 | 3.12 | 73.3 | 0.125 | 0.125 | 0.125 | 1 | 0.125 | 0.125 | 0.03 | 0.125 | 0.06 | 1 | 0.125 | 0.125 | minimal inhibitory concentration (MIC) [2]: 3.12; minimal inhibitory concentration (MIC) [3]: 3.12; minimal inhibitory concentration (MIC) [4]: 1.56; minimal inhibitory concentration (MIC) [5]: 3.12; minimal inhibitory concentration (MIC) [6]: 3.12; minimal inhibitory concentration (MIC) [7]: 3.12
